Laboratory results: US10113968B2, “Specific detection and quantification of cardiolipin and isolated mitochondria by positively charged AIE fluorogens and method of manufacturing thereof” (priority 2013, dated 2018)

What was measured:
[1] = Fluorescence response of dye to CL-containing (TOCL/DOPC) and CL-free (DOPC) LUVs; conditions: for emission with CL-containing vesicles: TOCL/DOPC 1:1, 25 mM HEPES pH 7.4, λex=350 nm
Experimental: CL-containing vesicles are composed of TOCL/DOPC (1:1 molar ratio), and CL-free vesicles are composed of pure DOPC, respectively, in a 25 mM HEPES buffer at pH 7.4. [dye]=10 μM; [lipid]total=22 μM; λex=350 nm.
FIG. 3A is a plot of the fluorescence enhancement (I/I0−1) of TTAPE-Me at 480 nm with CL-containing and CL-free vesicles.
FIG. 3B is the linear region of the I/I0−1 value versus CL concentration. [dye]=10 μM; λex=350 nm.
FIG. 4B is a plot of the fluorescence enhancement at 480 nm versus CL content. [dye]=10 μM; [lipid]total=22 μM; λex=350 nm.
CL-containing and CL-free vesicles are composed of TOCL/DOPC (1:1 molar ratio) and pure DOPC, respectively, in a 25 mM HEPES buffer at pH 7.4. [dye]=10 μM; [lipid]total=22 μM; λex=350 nm.
The fluorescence enhancement (I/I0−1) of TTAPE-Me at 480 nm is in a linear fashion in the CL concentration of 0-10 μM (FIG. 3B), which lies in the physiological range of CL in mitochondrial membrane. Linear detection of CL can also be obtained with the varying content of TOCL (2-50% TOCL) in the vesicles (FIG. 4A-4B). The results imply that flexible TTAPE-Me to CL ratio is allowed in the detection and quantification of CL. In contrast, conventional NAO requires strict 2:1 ratio of NAO/CL for quantitative measurement. Moreover, the detection of CL can be done immediately upon mixing the vesicles with the probe without any extra treatment.
To determine whether TTAPE-Me can specifically detect CL, two types of large unilamellar vesicles (LUVs) 100-200 nm in diameter were prepared (FIG. 2A-2B). The CL-free vesicles were prepared by pure 1,2-dioleoyl-sn-glycero-[…] (DOPC), which is the most abundant phospholipid in eukaryotic membranes. CL-containing vesicles were fabricated by the mixture of 1,1′,2,2′-tetraoleoyl cardiolipin (TOCL) and DOPC, in which the zwitterionic DOPC is used to stabilize the vesicles.

[2] = Isothermal titration calorimetry (ITC) of CL-containing vesicles with TTAPE-Me; assay type: binding; conditions: 25° C., CL-containing vesicles TOCL/DOPC 1:1, curve fitting, read-out: dissociation constant
Experimental: [dye]=10 μM; [lipid]total=22 μM; λex=350 nm. (B) Job plot for determination of the binding stoichiometry of TTAPE-Me to CL-containing vesicles. The total concentration of TTAPE-Me and CL is kept at 20 μM. (C) calorimetric curves for titration of CL-containing vesicles with serial injections of TTAPE-Me at 25° C. (D) Binding isotherm as a function of [TTAPE-Me]/[lipid]total molar ratio. CL-containing vesicles are composed of TOCL and DOPC (1:1 molar ratio).
According to the AIE principle, TTAPE-Me is only fluorescent when bound, and thus the fluorescence can report the binding of TTAPE-Me to CL-containing vesicles. The emission intensity varying ratios of TTAPE-Me to CL-containing LUVs is then recorded and correlated to a Job plot (FIG. 5B). The plot has a peak at ˜0.67, corresponding to a 2:1 binding ratio for TOCL to TTAPE-Me. The binding ratio perfectly matches the charge ratio, providing further support that the binding of TTAPE-Me towards CL is primarily driven by electrostatic interaction. […] The binding curve was generated by integration of the area of each injection peak followed by the subtraction of the dilution heat of dye molecules (FIG. 5D).

[3] = Fluorescence response to CL-containing and CL-free all-component LUVs; conditions: [dye]=10 μM
Experimental: (§1) Emission spectra of (C) TTAPE-Me and (D) NAO with CL-containing and CL-free all-component vesicles are shown. (E) Bar chart of the change in fluorescence intensity shown in panels C and D (red: CL-containing vesicles, blue: CL-free vesicles). [dye]=10 μM; [lipid]total=22 μM; for TTAPE-Me: λex=350 nm and λem=480 nm; for NAO: λex=499 nm and λem=530 nm.
Meanwhile, to mimic the mitochondrial membranes, CL-containing and CL-free all-component LUVs were prepared. The CL-containing and CL-free all-component LUVs were composed by the mixture of all the above mentioned lipids at their physiological ratios (FIG. 9A-9B). […] With the CL-containing LUVs, the greenish-blue fluorescence is enhanced by over 3-fold (FIGS. 7C & E). Parallel experiments were conducted with NAO as the probe. NAO is a turn-off sensor whose fluorescence is decreased in the presence of CL (FIG. 7D). However, CL is not the only lipid that induces the decrease of NAO signals—other lipids such as DPPE, PI, or DOPS, can also induce the decrease of NAO signals to a large extent (FIG. 7B).

pUC 18 DNA, 2686 bp = assay: Fluorescence of TTAPE-Me in the presence of plasmid DNA; conditions: wide range of DNA concentrations; [dye]=10 μM; λex=350 nm
Experimental: (TTAPE-Me with CL-containing LUVs is shown for comparison) [dye]=10 μM; λex=350 nm.
On the other hand, one might think that the negatively charged mitochondrial DNA (mtDNA) may interfere with the detection of CL by TTAPE-Me.

isolated mitochondria = assay: Quantification and staining of isolated yeast mitochondria by fluorescence; design: species or system S. cerevisiae strain YPH 500; conditions: SEM buffer pH 7.2; [dye]=10 μM; λex=350 nm; emission at 480 nm
Source text: Individual mitochondria from S. cerevisiae strain YPH 500 have been isolated and calibrated by Biuret test. […] In contrast, time-consuming and intricate procedures are involved when using NAO for the quantification of isolated mitochondria. The isolated mitochondria are fixed by formaldehyde, followed by multiple rinsing, centrifugation and resuspension steps. Further, the signal-to-noise ratio by using NAO is much smaller, likely due to the strong background of NAO in solution.

[4] = Fluorescence response to vesicles of different single mitochondrial lipids; conditions: 20% TOCL, 100% DOPC, 40% DPPE, 2% soy PI, 1% DOPS, 2% SM, rest DOPC; [dye]=10 μM; [lipid]total=22 μM
Experimental: as §1
To further evaluate the specificity of TTAPE-Me towards CL, the response of TTAPE-Me to other major lipids found on mitochondrial membranes was examined. The other major lipids evaluated were 1,2-dipalmitoleoyl-sn-glycero-3-phosphoethanolamine (DPPE):
Six different types of LUVs were fabricated and were composed of each of the above lipids and TOCL and DOPC at the exact percentage as mitochondrial membrane, with the remaining percentage of each type of LUV filled by DOPC.
While DOPS and PI are also negatively charged, they carry only one charge per molecule and share only 1% and 2% of the total mitochondrial membrane lipids, respectively (CL for ˜20%).

[5] = background statement; cited from earlier work
[6] = [dye]=10 μM, [lipid]total=22 μM

| Kd [2] [nM] | SMILES | emission with CL-containing vesicles [1, 6] | emission spectrum with CL-free all-component LUVs ([3]; [lipid]total=22 μM) | fluorescence enhancement with CL-containing all-component LUVs ([3]; [lipid]total=22 μM, λex=350 nm, λem=480 nm) | fluorescence in the presence of plasmids (pUC 18 DNA, 2686 bp) | relation of fluorescence intensity to mitochondria concentration (isolated mitochondria) | fluorescence with CL-containing vesicles on increase of NaCl concentration [1, 6] | emission with CL-free vesicles ([1]; pure DOPC vesicles, increasing total lipid concentration) | fluorescence response to vesicles of different lipid contents (selectivity) [4] | fluorescence in the presence of CL (all-component LUVs) ([3]; λex=499 nm, λem=530 nm) | water-solubility [5] |
| --- | --- | --- | --- | --- | --- | --- | --- | --- | --- | --- | --- |
| – | O=S(=O)([O-])CCCOc1ccc(/C(=C(\c2ccccc2)c2ccc(OCCCS(=O)(=O)[O-])cc2)c2ccccc2)cc1.[Na+].[Na+] [BSPOTPE, reference compound] | no remarkable fluorescence enhancement | – | – | – | – | – | – | – | – | – |
| 2080 | C[N+](C)(C)CCOc1ccc(C(=C(c2ccc(OCC[N+](C)(C)C)cc2)c2ccc(OCC[N+](C)(C)C)cc2)c2ccc(OCC[N+](C)(C)C)cc2)cc1.[Br-].[Br-].[Br-].[Br-] [TTAPE-Me, 1,1,2,2-tetrakis[4-(2-trimethylammonio-ethoxy)phenyl]ethene tetrabromide] | turned on | remains identical to that of the free dye in buffer | over 3 fold | no fluorescence enhancement | linear relationship | diminishes | remains rather weak | selectively turned on with the TOCL vesicles | – | – |
| – | CCCCCCCCC[n+]1c2cc(N(C)C)ccc2cc2ccc(N(C)C)cc21.[Br-] [NAO, 10-N-nonyl acridine orange, reference compound] | – | – | – | – | – | – | – | poor selectivity | decreased | poor water-solubility |
